Source: PubChem BioAssay AID248 (DTP/NCI, 2004)
Several values for one entry are separate records, joined by “and”; a condition that tells them apart may be missing. Identical values can stand only once. Toxic doses and inconclusive results are not listed. Rule as the data show it: active = T/C of 150% or more; inactive = T/C below 125%.

Test system: L1210 leukemia ip in BDF1 mice, survival T/C
Experiment: NCI In Vivo Anticancer Drug Screen. Data for tumor model L1210 Leukemia (intraperitoneal) in B6D2F1 (BDF1) mice
Settings: endpoint: mean survival time, higher = longer survival
How it was run: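 In this screen, tumor-bearing mice given compound are compared to those given vehicle, and their survival values are reported as a treated-to-control quotient.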

[1] = dose: 25.0 mg/kg/injection, schedule: Q01DX009 (ip), vehicle: Klucel (hydroxypropylcellulose) (HPC)
[2] = dose: 50.0 mg/kg/injection, schedule: Q01DX009 (ip), vehicle: Klucel (hydroxypropylcellulose) (HPC)
[3] = dose: 100.0 mg/kg/injection, schedule: Q01DX001 (ip), vehicle: carboxymethylcellulose (CMC)
[4] = dose: 50.0 mg/kg/injection, schedule: Q01DX001 (ip), vehicle: saline
[5] = dose: 100.0 mg/kg/injection, schedule: Q01DX001 (ip), vehicle: saline
[6] = dose: 200.0 mg/kg/injection, schedule: Q01DX001 (ip), vehicle: saline
[7] = dose: 400.0 mg/kg/injection, schedule: Q01DX001 (ip), vehicle: saline
[8] = dose: 100.0 mg/kg/injection, schedule: Q04DX003 (ip), vehicle: Klucel (hydroxypropylcellulose) (HPC)
[9] = dose: 200.0 mg/kg/injection, schedule: Q04DX003 (ip), vehicle: Klucel (hydroxypropylcellulose) (HPC)
[10] = dose: 400.0 mg/kg/injection, schedule: Q04DX003 (ip), vehicle: Klucel (hydroxypropylcellulose) (HPC)
[11] = dose: 200.0 mg/kg/injection, schedule: Q01DX009 (ip), vehicle: Klucel (hydroxypropylcellulose) (HPC)
[12] = dose: 400.0 mg/kg/injection, schedule: Q01DX009 (ip), vehicle: Klucel (hydroxypropylcellulose) (HPC)
[13] = dose: 25.0 mg/kg/injection, schedule: Q01DX001 (ip), vehicle: saline with Tween-80
[14] = dose: 50.0 mg/kg/injection, schedule: Q01DX001 (ip), vehicle: saline with Tween-80
[15] = dose: 100.0 mg/kg/injection, schedule: Q01DX009 (ip), vehicle: Klucel (hydroxypropylcellulose) (HPC)

Measured: T/C

O=C1OC2CC3CC1C2C3 (stereo not given)
inactive: dose: 5.0 mg/kg/injection, schedule: Q01DX001 (ip), vehicle: other 91 % of control | dose: 10.0 mg/kg/injection, schedule: Q01DX001 (ip), vehicle: other 91 % of control | dose: 10.0 mg/kg/injection, schedule: Q01DX001 (ip), vehicle: saline 101 % of control | dose: 12.5 mg/kg/injection, schedule: Q01DX009 (ip), vehicle: Klucel (hydroxypropylcellulose) (HPC) 98 % of control | dose: 20.0 mg/kg/injection, schedule: Q01DX001 (ip), vehicle: other 95 % of control | dose: 20.0 mg/kg/injection, schedule: Q01DX001 (ip), vehicle: saline 105 % of control | [1] 96 % of control | dose: 25.0 mg/kg/injection, schedule: Q04DX003 (ip), vehicle: Klucel (hydroxypropylcellulose) (HPC) 95 % of control | dose: 40.0 mg/kg/injection, schedule: Q01DX001 (ip), vehicle: other 94 % of control | dose: 40.0 mg/kg/injection, schedule: Q01DX001 (ip), vehicle: saline 99 % of control | dose: 50.0 mg/kg/injection, schedule: Q01DX001 (ip), vehicle: carboxymethylcellulose (CMC) 108 % of control | [2] 88 % of control | dose: 50.0 mg/kg/injection, schedule: Q04DX003 (ip), vehicle: Klucel (hydroxypropylcellulose) (HPC) 88 % of control | dose: 75.0 mg/kg/injection, schedule: Q01DX001 (ip), vehicle: acetone 97 % of control | [3] 108 % of control

CC(C)CCCC(C)C1CCC2C3CC=C4CC(OC(=O)CCl)CCC4(C)C3CCC12C (stereo not given)
inactive: [4] 101 % of control | [5] 95 % of control | [6] 95 % of control | [7] 101 % of control

CCOC(=O)N1C2C=CC(C2)N1C(=O)OCC
inactive: dose: 100.0 mg/kg/injection, schedule: Q04DX002 (sc), vehicle: olive oil, sesame oil, peanut oil 94 % of control | dose: 200.0 mg/kg/injection, schedule: Q04DX002 (sc), vehicle: olive oil, sesame oil, peanut oil 102 % of control | dose: 400.0 mg/kg/injection, schedule: Q04DX002 (sc), vehicle: olive oil, sesame oil, peanut oil 97 % of control

CN(CCCl)C(=O)Nc1ccc(Cl)cc1
inactive: [8] 94 % of control | [9] 94 % of control | [10] 90 % of control

O=C(O)c1ccccc1C(=O)Nc1ccccc1F
inactive: [8] 97 % of control | [11] 86 % of control | [9] 92 % of control | [12] 91 % of control | [10] 91 % of control

CC(=O)CC(=O)Nc1ccc(NC(C)=O)cc1
inactive: [5] 96 % of control | [6] 100 % of control | [7] 105 % of control

OC1CC2CCC1C21OCCO1 (stereo not given)
inactive: dose: 100.0 mg/kg/injection, schedule: Q01DX009 (ip), vehicle: saline 107 % of control | dose: 200.0 mg/kg/injection, schedule: Q01DX009 (ip), vehicle: saline 100 % of control | dose: 400.0 mg/kg/injection, schedule: Q01DX009 (ip), vehicle: saline 109 % of control

O=c1ccn(Cc2ccccc2)c(=S)[nH]1
inactive: [4] 97 % of control | [5] 94 % of control | [6] 97 % of control | [7] 100 % of control

Cc1ccccc1NC(=O)NCCBr
inactive: dose: 50.0 mg/kg/injection, schedule: Q01DX009 (ip), vehicle: saline with Tween-80 95 % of control | dose: 100.0 mg/kg/injection, schedule: Q01DX009 (ip), vehicle: saline with Tween-80 95 % of control

COc1ccc(S(=O)(=O)F)cc1NC(=O)NCCOc1ccc(-n2cnc3c(=O)[nH]c(N)nc32)cc1
inactive: dose: 100.0 mg/kg/injection, schedule: Q01DX001 (ip), vehicle: Klucel (hydroxypropylcellulose) (HPC) 102 % of control | dose: 200.0 mg/kg/injection, schedule: Q01DX001 (ip), vehicle: Klucel (hydroxypropylcellulose) (HPC) 97 % of control | dose: 400.0 mg/kg/injection, schedule: Q01DX001 (ip), vehicle: Klucel (hydroxypropylcellulose) (HPC) 96 % of control

CC(=O)c1scc2c1CCCC2
inactive: [13] 94 % of control | [14] 96 % of control | dose: 100.0 mg/kg/injection, schedule: Q01DX001 (ip), vehicle: saline with Tween-80 96 % of control

N#CC(C#N)=C/C=C/c1cccc([N+](=O)[O-])c1
inactive: dose: 38.0 mg/kg/injection, schedule: Q01DX009 (ip), vehicle: saline 102 % of control

N=C(N)CSSCC(=N)N
inactive: dose: 12.5 mg/kg/injection, schedule: Q04DX003 (ip), vehicle: carboxymethylcellulose (CMC) 92 % of control | dose: 25.0 mg/kg/injection, schedule: Q04DX003 (ip), vehicle: carboxymethylcellulose (CMC) 98 % of control | dose: 50.0 mg/kg/injection, schedule: Q04DX003 (ip), vehicle: carboxymethylcellulose (CMC) 98 % of control

CCNC(=S)Nc1ccccc1
inactive: dose: 37.5 mg/kg/injection, schedule: Q01DX009 (ip), vehicle: Klucel (hydroxypropylcellulose) (HPC) 102 % of control | dose: 75.0 mg/kg/injection, schedule: Q01DX009 (ip), vehicle: Klucel (hydroxypropylcellulose) (HPC) 104 % of control | dose: 150.0 mg/kg/injection, schedule: Q01DX009 (ip), vehicle: Klucel (hydroxypropylcellulose) (HPC) 115 % of control

CCSC(SCC)C(OC(C)=O)C(OC(C)=O)C(OC(C)=O)C(CNC(C)=O)OC(C)=O (stereo not given)
inactive: dose: 25.0 mg/kg/injection, schedule: Q04DX003 (ip), vehicle: saline with Tween-80 97 % of control | dose: 50.0 mg/kg/injection, schedule: Q04DX003 (ip), vehicle: saline with Tween-80 94 % of control | dose: 100.0 mg/kg/injection, schedule: Q04DX003 (ip), vehicle: saline with Tween-80 93 % of control and 89 % of control

CCN(CC)Cc1cc(NC(C)=O)ccc1O
inactive: dose: 100.0 mg/kg/injection, schedule: Q04DX003 (ip), vehicle: saline 102 % of control | dose: 200.0 mg/kg/injection, schedule: Q04DX003 (ip), vehicle: saline 97 % of control | dose: 400.0 mg/kg/injection, schedule: Q04DX003 (ip), vehicle: saline 113 % of control

O=c1c(Cl)c(-c2ccccc2)nc2ccccn12
inactive: dose: 12.5 mg/kg/injection, schedule: Q01DX001 (ip), vehicle: saline with Tween-80 100 % of control | [13] 110 % of control | [14] 93 % of control

NC(CSSCC(N)C(=O)O)C(=O)O (stereo not given)
inactive: [3] 95 % of control | [8] 93 % of control | dose: 200.0 mg/kg/injection, schedule: Q01DX001 (ip), vehicle: carboxymethylcellulose (CMC) 94 % of control | [9] 93 % of control | dose: 400.0 mg/kg/injection, schedule: Q01DX001 (ip), vehicle: carboxymethylcellulose (CMC) 95 % of control | [10] 91 % of control

CC(C)C(Sc1nc(N)nc2nc[nH]c12)C(=O)O (stereo not given)
inactive: [5] 98 % of control | dose: 100.0 mg/kg/injection, schedule: Q01DX009 (ip), vehicle: saline sonified 94 % of control | [8] 96 % of control | [6] 96 % of control | dose: 200.0 mg/kg/injection, schedule: Q01DX009 (ip), vehicle: saline sonified 106 % of control | [9] 100 % of control | [7] 102 % of control | dose: 400.0 mg/kg/injection, schedule: Q01DX009 (ip), vehicle: saline sonified 100 % of control | [10] 98 % of control

O=C(N/N=C(\C=N\NC(=O)c1ccccc1)CC(O)C(O)CO)c1ccccc1 (stereo not given)
inactive: [8] 91 % of control | [9] 96 % of control | [10] 93 % of control

[Cl][Ho]([Cl])[Cl]
inactive: dose: 100.0 mg/kg/injection, schedule: Q01DX005 (ip), vehicle: Klucel (hydroxypropylcellulose) (HPC) 94 % of control | [15] 98 % of control | dose: 100.0 mg/kg/injection, schedule: Q04DX002 (ip), vehicle: Klucel (hydroxypropylcellulose) (HPC) 88 % of control | dose: 200.0 mg/kg/injection, schedule: Q01DX005 (ip), vehicle: Klucel (hydroxypropylcellulose) (HPC) 98 % of control | [11] 95 % of control | dose: 200.0 mg/kg/injection, schedule: Q04DX002 (ip), vehicle: Klucel (hydroxypropylcellulose) (HPC) 98 % of control | dose: 400.0 mg/kg/injection, schedule: Q01DX005 (ip), vehicle: Klucel (hydroxypropylcellulose) (HPC) 88 % of control | dose: 400.0 mg/kg/injection, schedule: Q04DX002 (ip), vehicle: Klucel (hydroxypropylcellulose) (HPC) 109 % of control

CC1C(=O)OC(C)(C)OC1=O
inactive: [1] 99 % of control | [2] 100 % of control | [15] 98 % of control | [11] 94 % of control | [12] 103 % of control
